Assay results as given in patent US20190269705A1, “METHODS AND MATERIALS FOR TREATING GRAFT VERSUS HOST DISEASE” (Regents of the University of Minnesota, priority 2017, published 2019).

Columns and labels:
Th1 cells [1] = experiment: 3H-2-deoxyglucose uptake and ECAR, Th1; format: cell-based, mouse
Protocol: Glucose uptake assays were performed as described elsewhere (see, e.g., Macintyre et al., 2014 Cell Metab. 20(1):61-72). Naïve CD4+ T cells were differentiated into Th1 and Th17 cells, in triplicate, in the presence or absence of CB839 over 5 days and spun down after reisolation using CD4 kit as previously described. Cells were washed 2× in PBS, counted, then rested in 1 mL Kreb's Ringers HEPES (KRH) for 10 minutes. Cells were spun and resuspended to 5×10^5 cells/50 uL KRH for glucose uptake assay. Briefly, cells were […]. Cells incubated for 10 minutes at 37° C. Immediately after incubation, reaction was quenched with 200 μM phloretin (Calbiochem, Cat #: 524488). Cells were spun, washed, and then resuspended in scint fluid for counting on Beckman-Coulter scintillation counter. Pathway analysis of altered metabolites was performed using Metaboanalyst 3.0 (metaboanalyst. ca/faces/home.xhtml).
Experiments were carried out on Agilent Seahorse XF96 bioanalyzer (Agilent). Briefly, wild type CD4+ cells were isolated as previous and activated for 3 days on CD3/CD28 as previously described, or skewed to Th1 and Th17 subsets as described above. T cells were spun onto XF96 Cell-Tak (BD Bioscience, Cat #: 354240) coated plates and rested in Seahorse XF RPMI 1640 media supplemented with glutamine, sodium pyruvate, and glucose. For immediate metabolic response, CB839 and UK5099 were injected separately or in combination, and OCR and ECAR measured.
Glucose uptake assays were performed as previously described (Macintyre et al.,2014). Naïve CD4+ T cells were differentiated into Th1 and Th17 cells, in triplicate, in the presence or absence of CB839 over five days and spun down after reisolation using CD4 kit as previously described. At day 3 and 5, cells were removed, washed twice in PBS, counted, then rested in 1 mL Kreb's Ringers HEPES (KRH) for at least 10 minutes. Cells were spun and resuspended to 5×10^5 cells/50 μL KRH for glucose uptake assay. Briefly, 3H-2-deoxyglucose was suspended in KRH bubble layered in oil, and cells were added to this bubble. Cells were incubated for 10 minutes at 37° C. Immediately after incubation, reaction was quenched with 200 μM phloretin (Calbiochem, Cat #: 524488). Cells were spun, washed, and then resuspended in scintilation fluid for counting on Beckman-Coulter scintillation counter (3H, 1 min/sample read).
Experiments were carried out on Agilent Seahorse XF96 bioanalyzer (Agilent). Briefly, wild type CD4+ cells were isolated as previous and activated for 3 days on αCD3/CD28 coated plates as previously described, or skewed to Th1 and Th17 subsets as described above. T cells were isolated and spun onto XF96 Cell-Tak (BD Bioscience, Cat #: 354240) coated plates and rested in Seahorse XF RPMI 1640 media supplemented with glutamine, sodium pyruvate, and glucose. For immediate metabolic response, 1 μM CB839 and 5 μM UK5099 (Cat #: PZ0160-5MG) were injected separately or in combination, and OCR and ECAR measured. For activation response, 1 uM CB839 was injected into IL-7 maintained naïve CD4+ T cells in seahorse medium and allowed to incubate for 20 minutes, followed by soluble αCD3/CD28 injection.

Th1 cells [2] = experiment: Intracellular metabolites by mass spectrometry and pathway analysis, Th1; format: cell-based, mouse; details: for Hits: Th1 Pathway
Protocol: Differentiation: CD4 cells were isolated as previously described and differentiated in subset-specific medium (in triplicate) for 3 days, split at day 3 with new media and IL-2, then allowed to incubate a further 2 days. At day 5, wells were combined, cells washed lx in MACS buffer, re-isolated for CD4 via AutoMACS Pro automated magnetic separator (Miltenyi, Cat #: 130-092-545). Metabolites from Th1 and Th17 cells were extracted as described above.
Differentiation. CD4 cells were isolated as previously described and differentiated in subset-specific medium in the presence of vehicle or CB839 (in triplicate) for 3 days, split at day 3 with new media and IL-2, then allowed to incubate a further 2 days. At day 5, wells were combined, cells washed 1× in MACS buffer and re-isolated for CD4 via AutoMACS Pro automated magnetic separator (Miltenyi, Cat #: 130-092-545). Metabolites from Th1 and Th17 cells were extracted and analyzed by LC-HRMS using a Q-Exactive as described previously (Gerriets et al., 2015). Data were range scaled and analyzed using Metaboanalyst 3.5 (Xia and Wishart, 2002) to generate heat maps and for principle component analyses.

[3] = Th1, day 5, listed as GLS inhibitor

O=C(Cc1cccc(OC(F)(F)F)c1)Nc1ccc(CCCCc2nnc(NC(=O)Cc3ccccn3)s2)nn1 [CB839]
glucose uptake (Th1 cells [1]; Th1, day 5): increased | media acidification (ECAR, glycolytic flux) (Th1 cells [1]; Th1, day 5): increased | glucose uptake (Th1 cells [1]; [3]): increased levels of glucose uptake and glycolytic flux | media acidification (ECAR, glycolytic flux) (Th1 cells [1]; [3]): increased levels of glucose uptake and glycolytic flux | glucose uptake (Th1 cells [1]; Th1, day three): reduced | 2-hydroxyglutarate (2-HG) (Th1 cells [2]; Th1, CB839-treated vs vehicle): increased in both Th1 and Th17 | intracellular α-KG (Th1 cells [2]; Th1, CB839-treated vs vehicle): reduced | programs of intracellular metabolites (Th1 cells [2]; Th1, differentiated with CB839, 5 days): shifted | glutamate and aspartate levels (Th1 cells [2]; Th1, over five days): rapidly decreased | steady state levels of glutamine (Th1 cells [2]; Th1, over five days): rapidly increased | Hits (Th1 cells [2]; Alanine, aspartate and glutamate metabolism): 8 | Hits (Th1 cells [2]; Arginine and proline metabolism): 6 | Hits (Th1 cells [2]; Butanoate metabolism): 3 | Hits (Th1 cells [2]; Citrate cycle (TCA cycle)): 5 | Hits (Th1 cells [2]; Cysteine and methionine metabolism): 3 | Hits (Th1 cells [2]; D-Glutamine and Dglutamate metabolism): 3 | Hits (Th1 cells [2]; Histidine metabolism): 3 | Hits (Th1 cells [2]; Nitrogen metabolism): 2 | Hits (Th1 cells [2]; Pyrimidine metabolism): 6 | Hits (Th1 cells [2]; Pyruvate metabolism): 3
